According to US10202356B2, “JAK2 and ALK2 inhibitors and methods for their use” (Tolero Pharmaceuticals, Inc., priority 2013, dated 2019):
pIC50: −log10 of the molar value. Read-outs that look alike come from different tables or passages of the source. Values belong to the compound of their own block, whether it stands above or below them.

Key:
[1] = Pharmacokinetic profile, IV and PO administration; type: in vivo, female rats; parameters: AUC 0-inf: concentration or dose not given beside the values; conditions: for half-life: read-out: t½ (converted)
ALK2 = molecular target: T1, ALK2 (Homo sapiens, UniProt Q04771); assay: ALK2 inhibition, LanthaScreen binding assay
T1 construct: purchased Life Technologies (Drug Discovery and Development Services, Madison, Wis.)
T1 sequence (Q04771 21-509): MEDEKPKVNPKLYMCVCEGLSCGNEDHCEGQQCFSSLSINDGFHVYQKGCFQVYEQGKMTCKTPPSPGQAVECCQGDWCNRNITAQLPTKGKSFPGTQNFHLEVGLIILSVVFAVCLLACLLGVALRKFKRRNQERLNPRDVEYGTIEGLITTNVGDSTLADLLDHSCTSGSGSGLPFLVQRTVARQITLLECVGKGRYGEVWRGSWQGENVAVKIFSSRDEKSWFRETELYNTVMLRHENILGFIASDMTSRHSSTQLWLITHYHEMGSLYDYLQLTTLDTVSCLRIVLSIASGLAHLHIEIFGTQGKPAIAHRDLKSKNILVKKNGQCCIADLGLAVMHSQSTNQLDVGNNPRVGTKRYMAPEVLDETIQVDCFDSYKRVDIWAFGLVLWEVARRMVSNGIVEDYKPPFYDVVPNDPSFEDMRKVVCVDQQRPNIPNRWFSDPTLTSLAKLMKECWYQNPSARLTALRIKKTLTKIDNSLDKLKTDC
Protocol: (§1) Biochemical assays to measure the inhibitory effects of the compounds were performed by the Drug Discovery and Development Services at Life Technologies (Madison, Wis.). JAK2 kinase assays were performed using Z′-LYTE® technology, while ALK2 inhibition was tested using a LanthaScreen® binding assay.

JAK2 kinase = molecular target: T2, JAK2 kinase (Homo sapiens, UniProt O60674); assay: JAK2 kinase assay, Z'-LYTE technology; type: biochemical
T2 construct: purchased Life Technologies (Drug Discovery and Development Services, Madison, Wis.)
T2 sequence (O60674 whole entry): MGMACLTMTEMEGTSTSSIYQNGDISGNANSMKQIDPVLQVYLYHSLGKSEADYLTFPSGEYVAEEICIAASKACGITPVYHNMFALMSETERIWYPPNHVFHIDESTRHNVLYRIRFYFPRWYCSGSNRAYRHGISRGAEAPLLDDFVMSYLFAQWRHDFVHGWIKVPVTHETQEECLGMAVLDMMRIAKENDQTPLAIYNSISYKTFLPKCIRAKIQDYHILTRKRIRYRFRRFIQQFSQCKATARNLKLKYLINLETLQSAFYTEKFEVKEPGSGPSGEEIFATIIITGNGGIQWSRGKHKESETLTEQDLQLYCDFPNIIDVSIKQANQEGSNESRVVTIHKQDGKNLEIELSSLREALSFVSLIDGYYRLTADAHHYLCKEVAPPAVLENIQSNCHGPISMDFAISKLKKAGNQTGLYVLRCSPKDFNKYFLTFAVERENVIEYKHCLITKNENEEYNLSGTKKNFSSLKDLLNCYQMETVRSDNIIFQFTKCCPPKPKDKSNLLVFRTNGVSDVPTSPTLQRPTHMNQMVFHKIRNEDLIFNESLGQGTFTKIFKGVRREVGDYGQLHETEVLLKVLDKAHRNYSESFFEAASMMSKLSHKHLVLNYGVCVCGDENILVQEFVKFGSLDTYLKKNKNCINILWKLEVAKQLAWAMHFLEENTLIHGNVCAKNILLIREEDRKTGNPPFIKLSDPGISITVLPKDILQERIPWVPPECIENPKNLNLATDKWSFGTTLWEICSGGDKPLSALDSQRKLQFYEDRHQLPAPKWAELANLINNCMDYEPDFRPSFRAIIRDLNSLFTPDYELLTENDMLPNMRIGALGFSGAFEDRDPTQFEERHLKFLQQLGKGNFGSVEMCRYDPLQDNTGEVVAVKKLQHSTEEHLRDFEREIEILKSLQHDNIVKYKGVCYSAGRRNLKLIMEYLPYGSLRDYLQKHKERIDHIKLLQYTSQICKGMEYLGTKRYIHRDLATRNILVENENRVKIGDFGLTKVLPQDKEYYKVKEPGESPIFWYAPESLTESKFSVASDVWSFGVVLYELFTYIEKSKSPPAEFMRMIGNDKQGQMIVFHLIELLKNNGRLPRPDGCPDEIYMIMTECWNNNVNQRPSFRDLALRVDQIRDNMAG
Protocol: as §1

hepcidin expression = assay: Liver hepcidin expression in mice after single oral dose, real-time RT-PCR; type: in vivo; conditions: single oral dose 250 mg/kg, liver mRNA after six hours
Protocol: Hepcidin expression in the mice treated with compounds 4 and 12 was compared to hepcidin expression in mice treated with compound A. In this experiment, mice were treated orally with a single dose of test compound. After six hours, livers were removed from euthanized animals and RNA extracted. Hepcidin mRNA levels were determined by real-time RT-PCR as described above.

[2] = tested on: hepcidin expression induced by BMP2 in HEPG2 cells; assay: BMP2-induced hepcidin expression in HEPG2 cells; type: cell-based; conditions: 0.3 μM
[3] = tested on: hepcidin expression of HEPG2 cells; assay: Baseline hepcidin expression in HEPG2 cells, real-time RT-PCR; type: cell-based; conditions: 3 μM, 6 hours, HEPG2, normalized to β-actin
Protocol: Hepcidin expression of HEPG2 cells treated with exemplary compounds of the invention was tested. […] To observe the ability of the compounds to effect baseline hepcidin expression, HEPG2 (hepatocellular carcinoma) cells were treated with compound for 6 hours and then assayed for hepcidin expression by real-time RT-PCR (normalized to levels of β-actin). Hepcidin expression was lowered in a dose dependent manner. Hepcidin expression was inhibited by 90% at a 3 μM concentration of Compound 12. […] In contrast, Compound 7 treated cells produced a 50% decrease in the induction when treated at 0.3 μM.

[4] = PO, free base or salt form as labelled

Compound: COc1cc(Nc2nccc(Nc3cccnc3-c3ccccn3)n2)ccc1N1CCN(C)CC1 [Compound 11, N^4-(2,2′-bipyridin-3-yl)-N^2-(3-methoxy-4-(4-methylpiperazin-1-yl)phenyl)pyrimidine-2,4-diamine]
pIC50 (ALK2): > 8.00
pIC50 (JAK2 kinase): < 6.00

Compound: COc1cc(Nc2nccc(Nc3cccnc3-c3ccccn3)n2)cc(OC)c1OC [Compound 12, N^4-(2,2′-bipyridin-3-yl)-N^2-(3,4,5-trimethoxyphenyl)pyrimidine-2,4-diamine]
plasma concentration levels after 24 hours ([1]; female rats): remained high
bioavailability ([1]; rat, plasma, female rats, oral dose): 95%
Hepcidin expression inhibited [3]: 90%
pIC50 (ALK2): > 8.00
pIC50 (JAK2 kinase): < 6.00

Compound: COc1cnc(Nc2ccc(N3CCN(CCO)CC3)c(Cl)c2)nc1Nc1cccnc1-c1ccccn1 [Compound 13, 2-(4-(4-(4-(2,2′-bipyridin-3-ylamino)-5-methoxypyrimidin-2-ylamino)-2-chlorophenyl)piperazin-1-yl)ethanol]
pIC50 (ALK2): < 6.00
pIC50 (JAK2 kinase): < 6.00

Compound: COc1cc(Nc2ncc(OC)c(Nc3cccnc3-c3ccccn3)n2)ccc1N1CCN(C)CC1 [Compound 14, N^4-([2,2′-bipyridin]-3-yl)-5-methoxy-N^2-(3-methoxy-4-(4-methylpiperazin-1-yl)phenyl)pyrimidine-2,4-diamine]
pIC50 (ALK2): < 6.00
pIC50 (JAK2 kinase): 6.00 to 8.00

Compound: COc1cc(Nc2nccc(Nc3ccc(C)cc3CC#N)n2)ccc1N1CCN(C)CC1 [Compound 19, 2-(2-(2-(3-methoxy-4-(4-methylpiperazin-1-yl)phenylamino)pyrimidin-4-ylamino)-5-methylphenyl)acetonitrile]
pIC50 (ALK2): 6.00 to 8.00
pIC50 (JAK2 kinase): 6.00 to 8.00

Compound: COc1cc(Nc2nccc(Nc3ccc(C)c(CC#N)c3)n2)ccc1N1CCN(C)CC1 [Compound 21, 2-(5-(2-(3-methoxy-4-(4-methylpiperazin-1-yl)phenylamino)pyrimidin-4-ylamino)-2-methylphenyl)acetonitrile]
pIC50 (ALK2): 6.00 to 8.00
pIC50 (JAK2 kinase): > 8.00

Compound: O=C(O)C(O)C(O)C(=O)O (stereo not drawn) [Tartaric]
AUC 0-inf [1, 4]: 370.9 ng·h/mL
Cmax [1, 4]: 18.5 ng/mL
Tmax [1, 4]: 0.3 h

Compound: Citrate
AUC 0-inf [1, 4]: 801.5 ng·h/mL
Cmax [1, 4]: 93.4 ng/mL
F [1, 4]: 22.4 % IV
Tmax [1, 4]: 0.5 h
t½ [1, 4]: 6.8 h

Compound: H2SO4 [Compound H2SO4]
AUC 0-inf [1, 4]: 538.3 ng·h/mL
Cmax [1, 4]: 53.8 ng/mL
F [1, 4]: 17.8 % IV
Tmax [1, 4]: 1.0 h
t½ [1, 4]: 9.2 h

Compound: Maleate
AUC 0-inf [1, 4]: 484.8 ng·h/mL
Cmax [1, 4]: 34.2 ng/mL
F [1, 4]: 12.1 % IV
Tmax [1, 4]: 8.0 h
t½ [1, 4]: 8.5 h

Compound: Oxalate
AUC 0-inf [1, 4]: 721.2 ng·h/mL
Cmax [1, 4]: 81.9 ng/mL
F [1, 4]: 17.3 % IV
Tmax [1, 4]: 0.5 h
t½ [1, 4]: 7.3 h

Second part, led by results:

AUC 0-inf [1, 4]: 1200.1 ng·h/mL
Cmax [1, 4]: 176.8 ng/mL
F [1, 4]: 24.7 % IV
Tmax [1, 4]: 0.5 h
t½ [1, 4]: 5.8 h
Compound: CC(=O)O [Acetate]

pIC50 (ALK2): < 6.00
pIC50 (JAK2 kinase): < 6.00
Compound: CN1CCN(c2ccc(Nc3ncc(Cl)c(Nc4cccc(CC#N)c4)n3)cc2F)CC1 [Compound 1, 2-(3-((5-chloro-2((3-fluoro-4-(4-methylpiperazin-1-yl)phenyl)amino)pyrimidin-4-yl)amino)phenyl)acetonitrile]

pIC50 (ALK2): < 6.00
pIC50 (JAK2 kinase): < 6.00
Compound: Cc1cnc(Nc2ccc(N3CCN(C)CC3)c(F)c2)nc1Nc1cccc(CC#N)c1 [Compound 2, 2-(3-((2-((3-fluoro-4-(4-methylpiperazin-1-yl)phenyl)amino)-5-methylpyrimidin-4-yl)amino)phenyl)acetonitrile]

pIC50 (ALK2): < 6.00
pIC50 (JAK2 kinase): < 6.00
Compound: CN1CCN(c2ccc(Nc3ncc(C#N)c(Nc4cccc(CC#N)c4)n3)cc2F)CC1 [Compound 3, 4-((3-(cyanomethyl)phenyl)amino)-2((3-fluoro-4-(4-methylpiperazin-1-yl)phenyl)amino)pyrimidine-5-carbonitrile]

F ([1]; IV): 100.0 % IV
F [1, 4]: 15.4 % IV
plasma concentration levels after 24 hours ([1]; female rats): remain high
AUC 0-inf ([1]; female, rat, plasma, iv, read-out: AUC 0-inf): 1380 ng·h/mL
Cmax ([1]; female, rat, plasma, iv, read-out: Cmax): 996 ng/mL
Tmax ([1]; female, rat, plasma, iv, read-out: Tmax): 0 h
half-life ([1]; female, rat, plasma, iv): 9.2 h
AUC 0-inf ([1]; female, rat, plasma, PO, free base or salt form as labelled, read-out: AUC 0-inf): 852 ng·h/mL
Cmax ([1]; female, rat, plasma, PO, free base or salt form as labelled, read-out: Cmax): 118 ng/mL
Tmax ([1]; female, rat, plasma, PO, free base or salt form as labelled, read-out: Tmax): 2 h
half-life ([1]; female, rat, plasma, PO, free base or salt form as labelled): 6.5 h
pIC50 (ALK2): 6.00 to 8.00
pIC50 (JAK2 kinase): > 8.00
Compound: COc1cc(Nc2nccc(Nc3cccc(C4(C#N)CC4)c3)n2)ccc1N1CCN(C)CC1 [Compound 4, 1-(3-(2-(3-methoxy-4-(4-methylpiperazin-1-yl)phenylamino)pyrimidin-4-ylamino)phenyl)cyclopropanecarbonitrile]
hepcidin expression in mice compared to compound A (hepcidin expression): inhibit hepcidin expression to a greater extent than compound A

pIC50 (ALK2): < 6.00
pIC50 (JAK2 kinase): > 8.00
Compound: COc1cc(Nc2nccc(Nc3cccc(C4(C#N)CC4)c3)n2)cc(OC)c1OC [Compound 5, 1-(3-(2-(3,4,5-trimethoxyphenylamino)pyrimidin-4-ylamino)phenyl)cyclopropanecarbonitrile]

pIC50 (ALK2): 6.00 to 8.00
pIC50 (JAK2 kinase): > 8.00
Compound: N#CC1(c2cccc(Nc3ccnc(Nc4ccc(N5CCN(CCO)CC5)c(Cl)c4)n3)c2)CC1 [Compound 7, 1-(3-((2-((3-chloro-4-(4-(2-hydroxyethyl)piperazin-1-yl)phenyl)amino)pyrimidin-4-yl)amino)phenyl) cyclopropanecarbonitrile]
decrease in the BMP2 induction of hepcidin [2]: 50%

pIC50 (ALK2): 6.00 to 8.00
pIC50 (JAK2 kinase): > 8.00
Compound: CN1CCN(c2ccc(Nc3nccc(Nc4cccc(C5(C#N)CC5)c4)n3)cc2F)CC1 [Compound 8, 1-(3-((2-((3-fluoro-4-(4-methylpiperazin-1-yl)phenyl)amino)pyrimidin-4-yl)amino)phenyl)cyclopropanecarbonitrile]

pIC50 (ALK2): < 6.00
pIC50 (JAK2 kinase): 6.00 to 8.00
Compound: COc1cnc(Nc2ccc(N3CCN(CCO)CC3)c(Cl)c2)nc1Nc1cccc(C2(C#N)CC2)c1 [Compound 9, 1-(3-(2-(3-chloro-4-(4-(2-hydroxyethyl)piperazin-1-yl)phenylamino)-5-methoxypyrimidin-4-ylamino)phenyl)cyclopropanecarbonitrile]

pIC50 (ALK2): 6.00 to 8.00
pIC50 (JAK2 kinase): 6.00 to 8.00
Compound: OCCN1CCN(c2ccc(Nc3nccc(Nc4cccnc4-c4ccccn4)n3)cc2Cl)CC1 [Compound 10, 2-(4-(4-(4-(2,2′-bipyridin-3-ylamino)pyrimidin-2-ylamino)-2-chlorophenyl)piperazin-1-yl)ethanol]

pIC50 (ALK2): 6.00 to 8.00
pIC50 (JAK2 kinase): < 6.00
Compound: Cc1ccc(Nc2ccnc(Nc3ccc(N4CCN(CCO)CC4)c(Cl)c3)n2)c(-c2ccccn2)n1 [Compound 15, 2-(4-(2-chloro-4-(4-(6-methyl-2,2′-bipyridin-3-ylamino)pyrimidin-2-ylamino)phenyl)piperazin-1-yl)ethanol]

pIC50 (ALK2): 6.00 to 8.00
pIC50 (JAK2 kinase): < 6.00
Compound: COc1cc(Nc2nccc(Nc3ccc(C)nc3-c3ccccn3)n2)ccc1N1CCN(C)CC1 [Compound 16, N^2-(3-methoxy-4-(4-methylpiperazin-1-yl)phenyl)-N^4-(6-methyl-2,2′-bipyridin-3-yl)pyrimidine-2,4-diamine]

pIC50 (ALK2): 6.00 to 8.00
pIC50 (JAK2 kinase): < 6.00
Compound: COc1cc(Nc2nccc(Nc3ccc(C)nc3-c3ccccn3)n2)cc(OC)c1OC [Compound 17, N^4-(6-methyl-2,2′-bipyridin-3-yl)-N^2-(3,4,5-trimethoxyphenyl)pyrimidine-2,4-diamine]

pIC50 (ALK2): 6.00 to 8.00
pIC50 (JAK2 kinase): 6.00 to 8.00
Compound: Cc1ccc(Nc2ccnc(Nc3ccc(N4CCN(CCO)CC4)c(Cl)c3)n2)c(CC#N)c1 [Compound 18, 2-(2-(2-(3-chloro-4-(4-(2-hydroxyethyl)piperazin-1-yl)phenylamino)pyrimidin-4-ylamino)-5-methylphenyl)acetonitrile]

pIC50 (ALK2): 6.00 to 8.00
pIC50 (JAK2 kinase): 6.00 to 8.00
Compound: N#CCc1cc(F)ccc1Nc1ccnc(Nc2ccc(N3CCN(CCO)CC3)c(Cl)c2)n1 [Compound 22, 2-(2-(2-(3-chloro-4-(4-(2-hydroxyethyl)piperazin-1-yl)phenylamino)pyrimidin-4-ylamino)-5-fluorophenyl) acetonitrile]
